Results published in PubChem BioAssay (NCI).
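Where inhibition never reached the appropriate level, the endpoint shown equals the highest concentration tested. Otherwise, values were interpolated linearly from a five-concentration, 48-hour dose response in 96-well plates. Here, GI50 denotes the concentration required for 50% inhibition of growth. The concentration for full growth arrest is given as TGI.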

Columns and labels:
Test in all cases: NCI anticancer screen, dose series, 48 h
786-0 renal = test system: 786-0 renal
A498 renal = test system: A498 renal
A549 NSCLC = test system: A549 NSCLC
ACHN renal = test system: ACHN renal
BT-549 breast = test system: BT-549 breast
CAKI-1 renal = test system: CAKI-1 renal
CCRF-CEM leukemia = test system: CCRF-CEM leukemia
COLO 205 colon = test system: COLO 205 colon
DU-145 prostate = test system: DU-145 prostate
EKVX NSCLC = test system: EKVX NSCLC
HCC-2998 colon = test system: HCC-2998 colon
HCT-116 colon = test system: HCT-116 colon
HCT-15 colon = test system: HCT-15 colon
HL-60(TB) leukemia = test system: HL-60(TB) leukemia
HOP-62 NSCLC = test system: HOP-62 NSCLC
HOP-92 NSCLC = test system: HOP-92 NSCLC
HS 578T breast = test system: HS 578T breast
HT29 colon = test system: HT29 colon
IGROV1 ovarian = test system: IGROV1 ovarian
K-562 leukemia = test system: K-562 leukemia
KM12 colon = test system: KM12 colon
LOX IMVI melanoma = test system: LOX IMVI melanoma
M14 melanoma = test system: M14 melanoma
MALME-3M melanoma = test system: MALME-3M melanoma
MCF7 breast = test system: MCF7 breast
MDA-MB-231 breast = test system: MDA-MB-231 breast
MDA-MB-435 = test system: MDA-MB-435
MOLT-4 leukemia = test system: MOLT-4 leukemia
NCI-H226 lung = test system: NCI-H226 lung
NCI-H460 lung = test system: NCI-H460 lung
NCI-H522 lung = test system: NCI-H522 lung
NCI/ADR-RES ovarian = test system: NCI/ADR-RES ovarian
OVCAR-3 ovarian = test system: OVCAR-3 ovarian
OVCAR-4 ovarian = test system: OVCAR-4 ovarian
OVCAR-5 ovarian = test system: OVCAR-5 ovarian
OVCAR-8 ovarian = test system: OVCAR-8 ovarian
PC-3 prostate = test system: PC-3 prostate
RPMI-8226 leukemia = test system: RPMI-8226 leukemia
RXF 393 renal = test system: RXF 393 renal
SF-268 CNS = test system: SF-268 CNS
SF-295 CNS = test system: SF-295 CNS
SF-539 CNS = test system: SF-539 CNS
SK-MEL-2 melanoma = test system: SK-MEL-2 melanoma
SK-MEL-28 melanoma = test system: SK-MEL-28 melanoma
SK-MEL-5 melanoma = test system: SK-MEL-5 melanoma
SK-OV-3 ovarian = test system: SK-OV-3 ovarian
SN12C renal = test system: SN12C renal
SNB-19 CNS = test system: SNB-19 CNS
SNB-75 CNS = test system: SNB-75 CNS
SR leukemia = test system: SR leukemia
SW-620 colon = test system: SW-620 colon
T-47D breast = test system: T-47D breast
TK-10 renal = test system: TK-10 renal
U251 CNS = test system: U251 CNS
UACC-257 melanoma = test system: UACC-257 melanoma
UACC-62 melanoma = test system: UACC-62 melanoma
UO-31 renal = test system: UO-31 renal

`CS(=O)(=O)c1nccc(-c2c(-c3ccc(F)c(OCc4ccc(F)cc4)c3)nc3sccn23)n1` gave a GI50 (786-0 renal) of 20.9 µM, a TGI (786-0 renal) of 53.3 µM and a GI50 (A498 renal) of 13 µM. The TGI (A498 renal) was 26 µM, the GI50 (A549 NSCLC) was 17.7 µM and the TGI (A549 NSCLC) was 34.6 µM. The GI50 (ACHN renal) was 16.6 µM, the TGI (ACHN renal) was 30.9 µM and the GI50 (BT-549 breast) was 21.2 µM. For the same compound, the TGI (BT-549 breast) was 63.6 µM, the GI50 (CAKI-1 renal) was 14.8 µM and the TGI (CAKI-1 renal) was 28 µM. The GI50 (CCRF-CEM leukemia) was 3.38 µM, the TGI (CCRF-CEM leukemia) was 13.1 µM and the GI50 (COLO 205 colon) was 17.6 µM. It also gave a TGI (COLO 205 colon) of 34 µM, a GI50 (DU-145 prostate) of 3.33 µM and a TGI (DU-145 prostate) of 11.1 µM. The GI50 (EKVX NSCLC) was 15.6 µM, the TGI (EKVX NSCLC) was 29.1 µM and the GI50 (HCC-2998 colon) was 14.2 µM. The TGI (HCC-2998 colon) was 27.9 µM, the GI50 (HCT-116 colon) was 14.4 µM and the TGI (HCT-116 colon) was 27.5 µM. For the same compound, the GI50 (HCT-15 colon) was 13.8 µM, the TGI (HCT-15 colon) was 31.4 µM and the GI50 (HL-60(TB) leukemia) was 3.89 µM. The TGI (HL-60(TB) leukemia) was 15.3 µM, the GI50 (HOP-62 NSCLC) was 16.2 µM and the TGI (HOP-62 NSCLC) was 30.9 µM. It also gave a GI50 (HOP-92 NSCLC) of 5.43 µM, a TGI (HOP-92 NSCLC) of 21.5 µM and a GI50 (HS 578T breast) of 21.2 µM. For the same compound, the TGI (HS 578T breast) was 72.2 µM, the GI50 (HT29 colon) was 21.6 µM and the TGI (HT29 colon) was 61.6 µM. For the same compound, the GI50 (IGROV1 ovarian) was 15.5 µM, the TGI (IGROV1 ovarian) was 31.8 µM and the GI50 (K-562 leukemia) was 21 µM. For the same compound, the TGI (K-562 leukemia) was 72.8 µM, the GI50 (KM12 colon) was 17.6 µM and the TGI (KM12 colon) was 33.8 µM. It also gave a GI50 (LOX IMVI melanoma) of 10.2 µM, a TGI (LOX IMVI melanoma) of 24.5 µM and a GI50 (M14 melanoma) of 18.5 µM. It also gave a TGI (M14 melanoma) of 36.7 µM, a GI50 (MALME-3M melanoma) of 24.5 µM and a TGI (MALME-3M melanoma) of 71 µM. For the same compound, the GI50 (MCF7 breast) was 5.69 µM, the TGI (MCF7 breast) was 22.2 µM and the GI50 (MDA-MB-231 breast) was 18.1 µM. For the same compound, the TGI (MDA-MB-231 breast) was 39.4 µM, the GI50 (MDA-MB-435) was 16.5 µM and the TGI (MDA-MB-435) was 31 µM. It also gave a GI50 (MOLT-4 leukemia) of 18.2 µM, a TGI (MOLT-4 leukemia) of 44.4 µM and a GI50 (NCI-H226 lung) of 28.3 µM. For the same compound, the TGI (NCI-H226 lung) was > 100 µM, the GI50 (NCI-H460 lung) was 13.5 µM and the TGI (NCI-H460 lung) was 27.4 µM. For the same compound, the GI50 (NCI-H522 lung) was 13.4 µM, the TGI (NCI-H522 lung) was 30.3 µM and the GI50 (NCI/ADR-RES ovarian) was 18 µM. It also gave a TGI (NCI/ADR-RES ovarian) of 38.7 µM, a GI50 (OVCAR-3 ovarian) of 13.1 µM and a TGI (OVCAR-3 ovarian) of 25.8 µM. It also gave a GI50 (OVCAR-4 ovarian) of 17.8 µM, a TGI (OVCAR-4 ovarian) of 44.6 µM and a GI50 (OVCAR-5 ovarian) of 67.6 µM. The TGI (OVCAR-5 ovarian) was > 100 µM, the GI50 (OVCAR-8 ovarian) was 15 µM and the TGI (OVCAR-8 ovarian) was 28.3 µM. For the same compound, the GI50 (PC-3 prostate) was 17.2 µM, the TGI (PC-3 prostate) was 34.9 µM and the GI50 (RPMI-8226 leukemia) was 20 µM. The TGI (RPMI-8226 leukemia) was 54.7 µM, the GI50 (RXF 393 renal) was 14.3 µM and the TGI (RXF 393 renal) was 29.2 µM. It also gave a GI50 (SF-268 CNS) of 15.9 µM, a TGI (SF-268 CNS) of 32.8 µM and a GI50 (SF-295 CNS) of 23 µM. For the same compound, the TGI (SF-295 CNS) was 52 µM, the GI50 (SF-539 CNS) was 17.8 µM and the TGI (SF-539 CNS) was 36.7 µM. It also gave a GI50 (SK-MEL-2 melanoma) of 15.2 µM, a TGI (SK-MEL-2 melanoma) of 29.6 µM and a GI50 (SK-MEL-28 melanoma) of 16.1 µM. For the same compound, the TGI (SK-MEL-28 melanoma) was 29.8 µM, the GI50 (SK-MEL-5 melanoma) was 17.4 µM and the TGI (SK-MEL-5 melanoma) was 33.1 µM. The GI50 (SK-OV-3 ovarian) was 93.6 µM, the TGI (SK-OV-3 ovarian) was > 100 µM and the GI50 (SN12C renal) was 23.7 µM. The TGI (SN12C renal) was > 100 µM, the GI50 (SNB-19 CNS) was 16 µM and the TGI (SNB-19 CNS) was 30 µM. The GI50 (SNB-75 CNS) was 16.4 µM, the TGI (SNB-75 CNS) was > 100 µM and the GI50 (SR leukemia) was 13.1 µM. For the same compound, the TGI (SR leukemia) was 60.8 µM, the GI50 (SW-620 colon) was 16.1 µM and the TGI (SW-620 colon) was 31.8 µM. It also gave a GI50 (T-47D breast) of 11.1 µM, a TGI (T-47D breast) of 26.2 µM and a GI50 (TK-10 renal) of 22.1 µM. The TGI (TK-10 renal) was 66.3 µM, the GI50 (U251 CNS) was 17.8 µM and the TGI (U251 CNS) was 37.9 µM. It also gave a GI50 (UACC-257 melanoma) of 14.5 µM, a TGI (UACC-257 melanoma) of 28.4 µM and a GI50 (UACC-62 melanoma) of 16.3 µM. It also gave a TGI (UACC-62 melanoma) of 34.2 µM, a GI50 (UO-31 renal) of 15.1 µM and a TGI (UO-31 renal) of 36.3 µM.
